Results published in the supplement of paper PMC10307832.

What follows are cell lines tested with O=C(Nc1cc(C(F)(F)F)cc(C(F)(F)F)c1)c1cc(Cl)ccc1O [IMD-0354] + CCNC(=O)c1noc(-c2cc(C(C)C)c(O)cc2O)c1-c1ccc(CN2CCOCC2)cc1 [Luminespib] (partner 0.01 µM) (assay: relative viability (nuclei count vs DMSO), 5 days (fraction); higher = more cells survive). Conditions: first compound 0.04 µM.
Outline: (§1)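 A single step with final 0.05% Triton X-100, 1% formaldehyde and 1 ug/ml Hoechst fixed the cells and stained nuclei 5 days after treatment. Lung cancer cell lines in 1536-well plates had been treated by pin tool the day after seeding with one drug alone or a fixed anchor-drug dose plus five library-drug doses (not always all listed) in √10 steps, and nuclei were counted on 4× images. Relative viability is the ratio of nuclei in treated wells to nuclei in vehicle wells, taken as the median of duplicate plates.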

Cell Line	relative viability
201T	1.19
NCI-H1915	0.609
HCC-827	0.686
LXF-289	0.796
NCI-H23	0.299
NCI-H647	0.303
CAL-12T	0.432
NCI-H1651	0.984
EPLC-272H	0.51
NCI-H2228	0.102
NCI-H1792	0.465
NCI-H1355	0.769
NCI-H3122	0.0711
NCI-H1437	1.21
NCI-H1755	0.321
NCI-H2023	1.03
HCC-15	0.236
NCI-H1944	0.727
PC-14	0.143
EKVX	1.05
LC-2-ad	1.01
NCI-H1975	0.24
RERF-LC-KJ	1.42
SK-MES-1	0.904
NCI-H650	0.791
PC-3 [JPC-3]	0.688

Same assay, conditions: first compound 0.1265 µM

Cell Line	relative viability
201T	1.04
NCI-H1915	0.665
HCC-827	0.589
LXF-289	0.66
NCI-H23	0.212
NCI-H647	0.261
CAL-12T	0.434
NCI-H1651	0.557
EPLC-272H	0.322
NCI-H2228	0.169
NCI-H1792	0.411
NCI-H1355	0.585
NCI-H3122	0.103
NCI-H1437	0.899
NCI-H1755	0.515
NCI-H2023	0.799
HCC-15	0.257
NCI-H1944	0.818
PC-14	0.18
EKVX	0.672
LC-2-ad	0.87
NCI-H1975	0.197
RERF-LC-KJ	1.26
SK-MES-1	1.01
NCI-H650	0.873
PC-3 [JPC-3]	0.53

Same assay, conditions: first compound 0.4 µM

Cell Line	relative viability
201T	0.678
NCI-H1915	0.296
HCC-827	0.589
LXF-289	0.564
NCI-H23	0.247
NCI-H647	0.166
CAL-12T	0.338
NCI-H1651	0.289
EPLC-272H	0.409
NCI-H2228	0.109
NCI-H1792	0.35
NCI-H1355	0.567
NCI-H3122	0.0803
NCI-H1437	0.45
NCI-H1755	0.312
NCI-H2023	0.292
HCC-15	0.275
NCI-H1944	0.669
PC-14	0.152
EKVX	0.783
LC-2-ad	0.674
NCI-H1975	0.183
RERF-LC-KJ	0.4
SK-MES-1	0.437
NCI-H650	0.59
PC-3 [JPC-3]	0.569

Same assay, conditions: first compound 1.265 µM

Cell Line	relative viability
201T	0.638
NCI-H1915	0.355
HCC-827	0.235
LXF-289	0.508
NCI-H23	0.178
NCI-H647	0.111
CAL-12T	0.126
NCI-H1651	0.247
EPLC-272H	0.22
NCI-H2228	0.128
NCI-H1792	0.302
NCI-H1355	0.333
NCI-H3122	0.0918
NCI-H1437	0.191
NCI-H1755	0.456
NCI-H2023	0.0846
HCC-15	0.104
NCI-H1944	0.634
PC-14	0.134
EKVX	0.767
LC-2-ad	0.312
NCI-H1975	0.153
RERF-LC-KJ	0.227
SK-MES-1	0.169
NCI-H650	0.381
PC-3 [JPC-3]	0.351

Same assay, conditions: first compound 4 µM

Cell Line	relative viability
201T	0.278
NCI-H1915	0.226
HCC-827	0.129
LXF-289	0.192
NCI-H23	0.145
NCI-H647	0.0881
CAL-12T	0.172
NCI-H1651	0.153
EPLC-272H	0.131
NCI-H2228	0.145
NCI-H1792	0.258
NCI-H1355	0.32
NCI-H3122	0.0652
NCI-H1437	0.202
NCI-H1755	0.289
NCI-H2023	0.121
HCC-15	0.0925
NCI-H1944	0.17
PC-14	0.109
EKVX	0.117
LC-2-ad	0.226
NCI-H1975	0.162
RERF-LC-KJ	0.303
SK-MES-1	0.233
NCI-H650	0.167
PC-3 [JPC-3]	0.259

These cell lines were tested with Cc1cnc(CNC(=O)c2c(=O)c3ccc(N4CCCN(C)CC4)nc3n3c2sc2ccccc23)cn1 [CX-5461] + Cc1nc(NC(=O)N2CCC[C@H]2C(N)=O)sc1-c1ccnc(C(C)(C)C(F)(F)F)c1 [Alpelisib] (partner 2 µM) in the same assay as above. Conditions: first compound 0.01 µM.
Outline: as §1

Cell Line	relative viability
201T	1.01
NCI-H1915	1.07
HCC-827	0.996
LXF-289	1.03
NCI-H23	0.616
NCI-H647	1.29
CAL-12T	1.25
EPLC-272H	0.974
NCI-H2228	0.709
NCI-H1792	0.774
NCI-H1355	0.867
NCI-H3122	0.836
NCI-H1437	0.979
NCI-H1755	0.899
NCI-H2023	0.646
HCC-15	0.937
NCI-H1944	0.806
PC-14	0.947
EKVX	0.93
LC-2-ad	0.885
NCI-H1975	0.74
RERF-LC-KJ	0.832
SK-MES-1	0.886
NCI-H650	1.1
PC-3 [JPC-3]	1.06

Same assay, conditions: first compound 0.03162 µM

Cell Line	relative viability
201T	1.05
NCI-H1915	1.12
HCC-827	0.998
LXF-289	1.07
NCI-H23	0.865
NCI-H647	1.22
CAL-12T	1.17
NCI-H1651	0.79
EPLC-272H	1.06
NCI-H2228	0.884
NCI-H1792	0.744
NCI-H1355	0.82
NCI-H3122	0.951
NCI-H1437	0.941
NCI-H1755	1.01
NCI-H2023	0.606
HCC-15	0.905
NCI-H1944	0.936
PC-14	1.23
EKVX	0.865
LC-2-ad	0.9
NCI-H1975	0.641
RERF-LC-KJ	0.951
SK-MES-1	0.964
NCI-H650	1.16
PC-3 [JPC-3]	1.08

Same assay, conditions: first compound 0.1 µM

Cell Line	relative viability
201T	1.01
NCI-H1915	1.09
HCC-827	1.02
LXF-289	1.06
NCI-H23	0.717
NCI-H647	1.06
EPLC-272H	0.961
NCI-H2228	0.504
NCI-H1792	0.706
NCI-H1355	0.928
NCI-H3122	0.762
NCI-H1755	0.929
HCC-15	0.91
NCI-H1944	0.808
PC-14	1.05
EKVX	0.902
LC-2-ad	0.805
NCI-H1975	0.614
RERF-LC-KJ	0.933
SK-MES-1	1.08
NCI-H650	1.18
PC-3 [JPC-3]	1.02

Same assay, conditions: first compound 0.3162 µM

Cell Line	relative viability
201T	1.03
NCI-H1915	1.04
HCC-827	0.977
LXF-289	0.916
NCI-H23	0.689
NCI-H647	1.27
CAL-12T	1.37
NCI-H1651	0.665
NCI-H2228	0.591
NCI-H1792	0.898
NCI-H1355	0.758
NCI-H3122	0.773
NCI-H1437	0.913
NCI-H1755	0.973
NCI-H2023	0.57
HCC-15	0.89
PC-14	0.933
LC-2-ad	0.981
NCI-H1975	0.64
RERF-LC-KJ	0.754
SK-MES-1	0.952
NCI-H650	1.16
PC-3 [JPC-3]	1.07

Same assay, conditions: first compound 1 µM

Cell Line	relative viability
201T	1
NCI-H1915	1.03
HCC-827	0.989
LXF-289	1.02
NCI-H23	0.586
NCI-H647	0.211
CAL-12T	0.546
NCI-H1651	0.115
EPLC-272H	0.876
NCI-H2228	0.234
NCI-H1792	0.602
NCI-H1355	0.878
NCI-H3122	0.677
NCI-H1437	0.801
NCI-H1755	0.919
NCI-H2023	0.0938
HCC-15	0.779
NCI-H1944	0.831
PC-14	0.883
EKVX	0.883
LC-2-ad	0.561
NCI-H1975	0.408
RERF-LC-KJ	0.773
SK-MES-1	0.522
NCI-H650	0.977
PC-3 [JPC-3]	0.932

What follows are cell lines tested with O=C(Nc1cc(C(F)(F)F)cc(C(F)(F)F)c1)c1cc(Cl)ccc1O [IMD-0354] + CC(=O)Nc1cccc(-n2c(=O)n(C3CC3)c(=O)c3c(Nc4ccc(I)cc4F)n(C)c(=O)c(C)c32)c1 [Trametinib] (partner 0.02 µM) in the same assay as above. Conditions: first compound 0.04 µM.
Outline: as §1

Cell Line	relative viability
201T	0.732
NCI-H1915	0.321
